# In ChEMBL document CHEMBL1255229, “Novel antimicrobial peptides that exhibit activity against select agents and other drug resistant bacteria” (2010):
# Starred links: 1 amine or outer side, 2 acyl side, 3 side chain; linkers in the order of their positions; H or OH if unused. Non-standard residues stand in square brackets, D forms with d. Residues, ends and D or L forms follow the SMILES beside them. ξ: configuration not given here. Pro(3ξ,4ξ-(CH2)4) = O=C(O)[C@H]1NCC2CCCCC21; X1 = O=C([C@@H]1CN([*:1])C2CCCCC21)[*:2]; Phe(4-F) = N[C@@H](Cc1ccc(F)cc1)C(=O)O; Tic = O=C(O)[C@@H]1Cc2ccccc2CN1; Orn = NCCC[C@H](N)C(=O)O; βAla = NCCC(=O)O
# Key:
# Assay type in all cases: functional
# Yersinia pestis = assay: Antimicrobial activity against Yersinia pestis CO92 after 24 hrs; conditions: CO92, 24 h
# Acinetobacter baumannii [1] = assay: Antimicrobial activity against Acinetobacter baumannii WRAIR after 24 hrs
# Staphylococcus aureus = assay: Antimicrobial activity against methicillin-resistant Staphylococcus aureus ATCC 33591 after 24 hrs; conditions: ATCC 33591, 24 h
# Brucella melitensis = assay: Antimicrobial activity against Brucella melitensis 16 M after 24 hrs
# Bacillus anthracis = assay: Antimicrobial activity against Bacillus anthracis Ames after 24 hrs
# Brucella suis = assay: Antimicrobial activity against Brucella suis ATCC 23445 after 24 hrs; conditions: ATCC 23445, 24 h
# Burkholderia mallei = assay: Antimicrobial activity against Burkholderia mallei ATCC 23444 after 24 hrs; conditions: ATCC 23444, 24 h
# [2] = tested on: Burkholderia pseudomallei; assay: Antimicrobial activity against Burkholderia pseudomallei BURK003(1026b) after 24 hrs
# Brucella abortus = assay: Antimicrobial activity against Brucella abortus 2308 after 24 hrs; conditions: Brucella abortus, 2308, 24 h
# Acinetobacter baumannii [3] = assay: Antimicrobial activity against Acinetobacter baumannii ATCC 19606 after 24 hrs; conditions: ATCC 19606 = CIP 70.34 = JCM 6841, 24 h
# Francisella tularensis = assay: Antimicrobial activity against Francisella tularensis SCHU-S4 after 24 hrs; conditions: SCHU-S4, 24 h
Structure (SMILES),MIC (Yersinia pestis) [µM],MIC (Acinetobacter baumannii [1]) [µM],MIC (Staphylococcus aureus) [µM],MIC (Brucella melitensis) [µM],MIC (Bacillus anthracis) [µM],MIC (Brucella suis) [µM],MIC (Burkholderia mallei) [µM],MIC [2] [µM],MIC (Brucella abortus) [µM],MIC (Acinetobacter baumannii [3]) [µM],MIC (Francisella tularensis) [µM]
CC(=O)NCC(=O)N[C@@H](Cc1ccccc1)C(=O)N1Cc2ccccc2C[C@H]1C(=O)N1C[C@@H](C(=O)NCC(=O)N[C@@H](CCCCN)C(=O)N2Cc3ccccc3C[C@H]2C(=O)N2C[C@@H](C(=O)NCC(=O)N[C@@H](Cc3ccccc3)C(=O)N3Cc4ccccc4C[C@H]3C(=O)N3C[C@@H](C(=O)NCC(=O)N[C@@H](CCCCN)C(=O)N4Cc5ccccc5C[C@H]4C(=O)NCCC(=O)N[C@@H](CCCCN)C(=O)N[C@@H](CCCCN)C(=O)N[C@@H](CCCCN)C(=O)N[C@@H](CCCCN)C(N)=O)C4CCCCC43)C3CCCCC32)C2CCCCC21 (stereo not given in full) (Ac-GF[Tic][X1]GK[Tic][X1]GF[Tic][X1]GK[Tic][βAla]KKKK-NH2),199,6.2,199,199,12.4,199,199,199,199,6.2,199
CC(C)C[C@H](NC(=O)[C@@H](N)CCCCN)C(=O)N1Cc2ccccc2C[C@H]1C(=O)N1C[C@@H](C(=O)N[C@@H](CCCCN)C(=O)N2Cc3ccccc3C[C@H]2C(=O)N2C[C@@H](C(=O)N[C@@H](Cc3ccccc3)C(=O)N3Cc4ccccc4C[C@H]3C(=O)N3C[C@@H](C(=O)N[C@@H](CCCCN)C(=O)N4Cc5ccccc5C[C@H]4C(=O)N4C[C@@H](C(=O)N[C@@H](Cc5ccccc5)C(=O)N5Cc6ccccc6C[C@H]5C(=O)N5C[C@@H](C(=O)N[C@@H](CCCCN)C(=O)N6Cc7ccccc7C[C@H]6C(=O)N6C[C@@H](C(=O)N[C@@H](CCCCN)C(=O)N[C@@H](CCCNC(=N)N)C(N)=O)C7CCCCC76)C6CCCCC65)C5CCCCC54)C4CCCCC43)C3CCCCC32)C2CCCCC21 (stereo not given in full) (H-KL[Tic][X1]K[Tic][X1]F[Tic][X1]K[Tic][X1]F[Tic][X1]K[Tic][X1]KR-NH2),162,162,162,162,40.5,162,162,162,500,40.5,81
"CC(=O)NCC(=O)N[C@@H](Cc1ccc(F)cc1)C(=O)N1Cc2ccccc2C[C@H]1C(=O)N1CC2CCCCC2[C@H]1C(=O)NCC(=O)N[C@@H](CCCCN)C(=O)N1Cc2ccccc2C[C@H]1C(=O)N1CC2CCCCC2[C@H]1C(=O)NCC(=O)N[C@@H](Cc1ccc(F)cc1)C(=O)N1Cc2ccccc2C[C@H]1C(=O)N1CC2CCCCC2[C@H]1C(=O)NCC(=O)N[C@@H](CCCCN)C(=O)N1Cc2ccccc2C[C@H]1C(=O)N[C@@H](CCCCN)C(=O)N[C@@H](CCCCN)C(=O)N[C@@H](CCCCN)C(=O)N[C@@H](CCCCN)C(N)=O (stereo not given in full) (Ac-G[Phe(4-F)][Tic][Pro(3ξ,4ξ-(CH2)4)]GK[Tic][Pro(3ξ,4ξ-(CH2)4)]G[Phe(4-F)][Tic][Pro(3ξ,4ξ-(CH2)4)]GK[Tic]KKKK-NH2)",202,6.2,101,202,12.6,202,202,202,202,3.1,202
CC(C)C[C@H](NC(=O)[C@@H](N)CCCN)C(=O)N1Cc2ccccc2C[C@H]1C(=O)N1C[C@@H](C(=O)N[C@@H](CCCN)C(=O)N2Cc3ccccc3C[C@H]2C(=O)N2C[C@@H](C(=O)N[C@@H](Cc3ccccc3)C(=O)N3Cc4ccccc4C[C@H]3C(=O)N3C[C@@H](C(=O)N[C@@H](CCCN)C(=O)N4Cc5ccccc5C[C@H]4C(=O)N4C[C@@H](C(=O)N[C@@H](Cc5ccccc5)C(=O)N5Cc6ccccc6C[C@H]5C(=O)N5C[C@@H](C(=O)N[C@@H](CCCN)C(=O)N6Cc7ccccc7C[C@H]6C(=O)N6C[C@@H](C(=O)N[C@@H](CCCN)C(=O)N[C@@H](CCCN)C(=O)N[C@@H](CCCN)C(=O)N[C@@H](CCCN)C(N)=O)C7CCCCC76)C6CCCCC65)C5CCCCC54)C4CCCCC43)C3CCCCC32)C2CCCCC21 (stereo not given in full) (H-[Orn]L[Tic][X1][Orn][Tic][X1]F[Tic][X1][Orn][Tic][X1]F[Tic][X1][Orn][Tic][X1][Orn][Orn][Orn][Orn]-NH2),156,156,156,156,156,156,156,156,156,9.77,156
CC(C)C[C@H](NC(=O)[C@@H](N)CCCCN)C(=O)N1Cc2ccccc2C[C@H]1C(=O)N1C[C@@H](C(=O)NCC(=O)N[C@@H](CCCCN)C(=O)N2Cc3ccccc3C[C@H]2C(=O)N2C[C@@H](C(=O)N[C@@H](Cc3ccccc3)C(=O)N3Cc4ccccc4C[C@H]3C(=O)N3C[C@@H](C(=O)NCC(=O)N[C@@H](CCCCN)C(=O)N4Cc5ccccc5C[C@H]4C(=O)N4C[C@@H](C(=O)N[C@@H](Cc5ccccc5)C(=O)N5Cc6ccccc6C[C@H]5C(=O)N5C[C@@H](C(=O)NCC(=O)N[C@@H](CCCCN)C(=O)N6Cc7ccccc7C[C@H]6C(=O)N6C[C@@H](C(=O)N[C@@H](CCCCN)C(=O)N[C@@H](CCCCN)C(=O)N[C@@H](CCCCN)C(=O)N[C@@H](CCCCN)C(N)=O)C7CCCCC76)C6CCCCC65)C5CCCCC54)C4CCCCC43)C3CCCCC32)C2CCCCC21 (stereo not given in full) (H-KL[Tic][X1]GK[Tic][X1]F[Tic][X1]GK[Tic][X1]F[Tic][X1]GK[Tic][X1]KKKK-NH2),144,144,17.9,144,8.97,144,144,144,144,4.6,144
